Test results: PubChem BioAssay (NCI)
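Tested at 5 concentrations; 48 h exposure; 96-well plates; endpoints linearly interpolated, else capped at highest concentration. The concentration for 50% growth inhibition is given as GI50. TGI is the concentration that stops growth completely.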

Experiments:
Assay in all cases: NCI tumour cell line growth inhibition, 48 h
786-0 renal = test system: 786-0 renal
A498 renal = test system: A498 renal
A549 NSCLC = test system: A549 NSCLC
ACHN renal = test system: ACHN renal
BT-549 breast = test system: BT-549 breast
CAKI-1 renal = test system: CAKI-1 renal
CCRF-CEM leukemia = test system: CCRF-CEM leukemia
COLO 205 colon = test system: COLO 205 colon
DU-145 prostate = test system: DU-145 prostate
EKVX NSCLC = test system: EKVX NSCLC
HCC-2998 colon = test system: HCC-2998 colon
HCT-116 colon = test system: HCT-116 colon
HCT-15 colon = test system: HCT-15 colon
HL-60(TB) leukemia = test system: HL-60(TB) leukemia
HOP-62 NSCLC = test system: HOP-62 NSCLC
HOP-92 NSCLC = test system: HOP-92 NSCLC
HS 578T breast = test system: HS 578T breast
HT29 colon = test system: HT29 colon
IGROV1 ovarian = test system: IGROV1 ovarian
K-562 leukemia = test system: K-562 leukemia
KM12 colon = test system: KM12 colon
LOX IMVI melanoma = test system: LOX IMVI melanoma
M14 melanoma = test system: M14 melanoma
MALME-3M melanoma = test system: MALME-3M melanoma
MCF7 breast = test system: MCF7 breast
MDA-MB-231 breast = test system: MDA-MB-231 breast
MDA-MB-435 = test system: MDA-MB-435
MOLT-4 leukemia = test system: MOLT-4 leukemia
NCI-H226 lung = test system: NCI-H226 lung
NCI-H23 lung = test system: NCI-H23 lung
NCI-H460 lung = test system: NCI-H460 lung
NCI-H522 lung = test system: NCI-H522 lung
NCI/ADR-RES ovarian = test system: NCI/ADR-RES ovarian
OVCAR-3 ovarian = test system: OVCAR-3 ovarian
OVCAR-4 ovarian = test system: OVCAR-4 ovarian
OVCAR-5 ovarian = test system: OVCAR-5 ovarian
OVCAR-8 ovarian = test system: OVCAR-8 ovarian
PC-3 prostate = test system: PC-3 prostate
RPMI-8226 leukemia = test system: RPMI-8226 leukemia
RXF 393 renal = test system: RXF 393 renal
SF-268 CNS = test system: SF-268 CNS
SF-295 CNS = test system: SF-295 CNS
SF-539 CNS = test system: SF-539 CNS
SK-MEL-2 melanoma = test system: SK-MEL-2 melanoma
SK-MEL-28 melanoma = test system: SK-MEL-28 melanoma
SK-MEL-5 melanoma = test system: SK-MEL-5 melanoma
SK-OV-3 ovarian = test system: SK-OV-3 ovarian
SN12C renal = test system: SN12C renal
SNB-19 CNS = test system: SNB-19 CNS
SNB-75 CNS = test system: SNB-75 CNS
SR leukemia = test system: SR leukemia
SW-620 colon = test system: SW-620 colon
T-47D breast = test system: T-47D breast
TK-10 renal = test system: TK-10 renal
U251 CNS = test system: U251 CNS
UACC-257 melanoma = test system: UACC-257 melanoma
UACC-62 melanoma = test system: UACC-62 melanoma
UO-31 renal = test system: UO-31 renal

COc1cc(/C=N/NC(=O)c2cnn3c2NC(c2ccccc2)C3)ccc1OC1CCCC1 (configuration not stated)
GI50 (786-0 renal): 0.639 µM | TGI (786-0 renal): 3.73 µM | GI50 (A498 renal): 0.407 µM | TGI (A498 renal): 2.28 µM | GI50 (A549 NSCLC): 0.731 µM | TGI (A549 NSCLC): 3.86 µM | GI50 (ACHN renal): 0.666 µM | TGI (ACHN renal): 6.04 µM | GI50 (BT-549 breast): 1.46 µM | TGI (BT-549 breast): 5.74 µM | GI50 (CAKI-1 renal): 0.556 µM | TGI (CAKI-1 renal): 5.01 µM | GI50 (CCRF-CEM leukemia): 0.691 µM | TGI (CCRF-CEM leukemia): 10.8 µM | GI50 (COLO 205 colon): 0.59 µM | TGI (COLO 205 colon): 7.53 µM | GI50 (DU-145 prostate): 1.06 µM | TGI (DU-145 prostate): 7.03 µM | GI50 (EKVX NSCLC): 1.51 µM | TGI (EKVX NSCLC): 14 µM | GI50 (HCC-2998 colon): 3.19 µM | TGI (HCC-2998 colon): 19.7 µM | GI50 (HCT-116 colon): 0.518 µM | TGI (HCT-116 colon): 3.46 µM | GI50 (HCT-15 colon): 0.5 µM | TGI (HCT-15 colon): 10.8 µM | GI50 (HL-60(TB) leukemia): 0.384 µM | TGI (HL-60(TB) leukemia): 3.93 µM | GI50 (HOP-62 NSCLC): 0.83 µM | TGI (HOP-62 NSCLC): 6.47 µM | GI50 (HOP-92 NSCLC): 0.684 µM | TGI (HOP-92 NSCLC): 3.69 µM | GI50 (HS 578T breast): 0.705 µM | TGI (HS 578T breast): 4.14 µM | GI50 (HT29 colon): 0.467 µM | TGI (HT29 colon): 8.55 µM | GI50 (IGROV1 ovarian): 0.723 µM | TGI (IGROV1 ovarian): 9.4 µM | GI50 (K-562 leukemia): 0.348 µM | TGI (K-562 leukemia): > 30.4 µM | GI50 (KM12 colon): 0.39 µM | TGI (KM12 colon): 4.46 µM | GI50 (LOX IMVI melanoma): 0.581 µM | TGI (LOX IMVI melanoma): 2.21 µM | GI50 (M14 melanoma): 0.646 µM | TGI (M14 melanoma): 5.19 µM | GI50 (MALME-3M melanoma): 1.02 µM | TGI (MALME-3M melanoma): 4.28 µM | GI50 (MCF7 breast): 0.373 µM | TGI (MCF7 breast): 4.07 µM | GI50 (MDA-MB-231 breast): 1.67 µM | TGI (MDA-MB-231 breast): 7.85 µM | GI50 (MDA-MB-435): 0.258 µM | TGI (MDA-MB-435): 1.28 µM | GI50 (MOLT-4 leukemia): 1.23 µM | TGI (MOLT-4 leukemia): 11.1 µM | GI50 (NCI-H226 lung): 1.64 µM | TGI (NCI-H226 lung): 6.12 µM | GI50 (NCI-H23 lung): 1.44 µM | TGI (NCI-H23 lung): 8.85 µM | GI50 (NCI-H460 lung): 0.389 µM | TGI (NCI-H460 lung): 1.56 µM | GI50 (NCI-H522 lung): 0.475 µM | TGI (NCI-H522 lung): 6.54 µM | GI50 (NCI/ADR-RES ovarian): 0.884 µM | TGI (NCI/ADR-RES ovarian): 4.35 µM | GI50 (OVCAR-3 ovarian): 0.262 µM | TGI (OVCAR-3 ovarian): 0.697 µM | GI50 (OVCAR-4 ovarian): 2.01 µM | TGI (OVCAR-4 ovarian): 7.75 µM | GI50 (OVCAR-5 ovarian): 1.84 µM | TGI (OVCAR-5 ovarian): 10.9 µM | GI50 (OVCAR-8 ovarian): 1.57 µM | TGI (OVCAR-8 ovarian): 7.61 µM | GI50 (PC-3 prostate): 0.503 µM | TGI (PC-3 prostate): 3.44 µM | GI50 (RPMI-8226 leukemia): 0.527 µM | TGI (RPMI-8226 leukemia): 4.91 µM | GI50 (RXF 393 renal): 0.357 µM | TGI (RXF 393 renal): 1.47 µM | GI50 (SF-268 CNS): 1.88 µM | TGI (SF-268 CNS): 13.1 µM | GI50 (SF-295 CNS): 0.367 µM | TGI (SF-295 CNS): 1.66 µM | GI50 (SF-539 CNS): 0.537 µM | TGI (SF-539 CNS): 1.99 µM | GI50 (SK-MEL-2 melanoma): 0.948 µM | TGI (SK-MEL-2 melanoma): 6.06 µM | GI50 (SK-MEL-28 melanoma): 1.25 µM | TGI (SK-MEL-28 melanoma): 9.15 µM | GI50 (SK-MEL-5 melanoma): 0.59 µM | TGI (SK-MEL-5 melanoma): 4.77 µM | GI50 (SK-OV-3 ovarian): 1.57 µM | TGI (SK-OV-3 ovarian): 8.49 µM | GI50 (SN12C renal): 1.85 µM | TGI (SN12C renal): 9.61 µM | GI50 (SNB-19 CNS): 0.923 µM | TGI (SNB-19 CNS): 10.9 µM | GI50 (SNB-75 CNS): 0.207 µM | TGI (SNB-75 CNS): 0.778 µM | GI50 (SR leukemia): 0.252 µM | TGI (SR leukemia): 3.78 µM | GI50 (SW-620 colon): 0.468 µM | TGI (SW-620 colon): 2.38 µM | GI50 (T-47D breast): 0.704 µM | TGI (T-47D breast): 10.4 µM | GI50 (TK-10 renal): 4.06 µM | TGI (TK-10 renal): 16.3 µM | GI50 (U251 CNS): 0.92 µM | TGI (U251 CNS): 5.91 µM | GI50 (UACC-257 melanoma): 1.45 µM | TGI (UACC-257 melanoma): 12 µM | GI50 (UACC-62 melanoma): 0.573 µM | TGI (UACC-62 melanoma): 3.67 µM | GI50 (UO-31 renal): 1.22 µM | TGI (UO-31 renal): 6.59 µM

COC1=CC(=O)O/C1=C(\OC)C1OC1c1ccccc1 (configuration not stated)
TGI (786-0 renal): > 100 µM | TGI (A498 renal): > 100 µM | TGI (A549 NSCLC): > 100 µM | TGI (ACHN renal): > 100 µM | TGI (BT-549 breast): > 100 µM | TGI (CAKI-1 renal): > 100 µM | TGI (CCRF-CEM leukemia): > 100 µM | TGI (COLO 205 colon): > 100 µM | TGI (DU-145 prostate): > 100 µM | TGI (EKVX NSCLC): > 100 µM | TGI (HCC-2998 colon): > 100 µM | TGI (HCT-116 colon): > 100 µM | TGI (HCT-15 colon): > 100 µM | TGI (HL-60(TB) leukemia): > 100 µM | TGI (HOP-62 NSCLC): > 100 µM | TGI (HOP-92 NSCLC): > 100 µM | TGI (HS 578T breast): > 100 µM | TGI (HT29 colon): > 100 µM | TGI (IGROV1 ovarian): > 100 µM | TGI (KM12 colon): > 100 µM | TGI (LOX IMVI melanoma): > 100 µM | TGI (M14 melanoma): > 100 µM | TGI (MALME-3M melanoma): > 100 µM | TGI (MCF7 breast): > 100 µM | TGI (MDA-MB-231 breast): > 100 µM | TGI (MDA-MB-435): > 100 µM | TGI (MOLT-4 leukemia): > 100 µM | TGI (NCI-H226 lung): > 100 µM | TGI (NCI-H23 lung): > 100 µM | TGI (NCI-H460 lung): > 100 µM | TGI (NCI-H522 lung): > 100 µM | TGI (NCI/ADR-RES ovarian): > 100 µM | TGI (OVCAR-3 ovarian): > 100 µM | TGI (OVCAR-4 ovarian): > 100 µM | TGI (OVCAR-5 ovarian): > 100 µM | TGI (OVCAR-8 ovarian): > 100 µM | TGI (PC-3 prostate): > 100 µM | TGI (RPMI-8226 leukemia): > 100 µM | TGI (RXF 393 renal): > 100 µM | TGI (SF-268 CNS): > 100 µM | TGI (SF-295 CNS): > 100 µM | TGI (SF-539 CNS): > 100 µM | TGI (SK-MEL-2 melanoma): > 100 µM | TGI (SK-MEL-28 melanoma): > 100 µM | TGI (SK-MEL-5 melanoma): > 100 µM | TGI (SK-OV-3 ovarian): > 100 µM | TGI (SN12C renal): > 100 µM | TGI (SNB-19 CNS): > 100 µM | TGI (SR leukemia): 93.8 µM | TGI (SW-620 colon): > 100 µM | TGI (T-47D breast): > 100 µM | TGI (TK-10 renal): > 100 µM | TGI (U251 CNS): > 100 µM | TGI (UACC-257 melanoma): > 100 µM | TGI (UACC-62 melanoma): > 100 µM | TGI (UO-31 renal): > 100 µM
